Data taken from patent publication US12354130B2, “Combination therapies” (Genentech, Inc., priority 2012, dated 2025).
Read-outs that look alike come from different tables or passages of the source.

What was measured:
[1] = cited from earlier work
[2] = tested on: patients with BRAF^V600 mutation-positive, unresectable locally advanced or metastatic melanoma
Excerpt: This multicenter study has 2 stages: a dose-escalation stage and a cohort-expansion stage.
Key inclusion criteria include the presence of the V600E mutation in melanoma tumor tissue using the Cobas® 4800 BRAF V600 mutation test, measurable disease per Response Evaluation Criteria in Solid Tumors (RECIST) v1.1, ECOG PS of ≤1, and adequate hematologic and end organ function as assessed through key laboratory measures. Patients were excluded if they had: ocular pathology or risk factors that predisposes to retinal vein occlusion; QTc>450 ms; or active CNS metastasis. Patients treated with stereotactic radiation therapy or surgery were eligible if stable for >3 weeks prior to treatment.
Each treatment cycle was 28 days.
Dose-escalation used the standard 3+3 design and proceeded in increments, taking into account the safety and tolerability of the combination.
Eligible patients had BRAF^V600-mutated unresectable or metastatic melanoma, and ECOG PS 0-1. Patients were either naïve to vemurafenib or had disease progression on vemurafenib. The study consisted of dose-escalation and expansion stages. […] Primary endpoints were maximum tolerated dose (MTD), dose-limiting toxicity (DLT) of both drugs, safety, and PK.

[3] = cited from earlier work; remark: listed apart in the source
[4] = tested on: unresectable or metastatic melanoma that is BRAFV600E mutation-positive; conditions: cited from earlier work
[5] = during combination treatment, as of 6 Jul. 2012
[6] = compared with dacarbazine (Chapman et al. 2011)

Compound | single-agent MTD ([1]; 21/7 schedule) | dose-limiting toxicity event ([2]; cohort 1 (vemurafenib 720 mg BID+GDC-0973 60 mg QD 14/14), led to discontinuation of vemurafenib) | dose-limiting toxicity event ([2]; cohort 1D) | discontinuation of the drug because of QT interval prolongation [2, 5] | primary dose reduction of the drug because of LFT abnormality [2, 5] | primary dose reduction of the drug because of central serous retinopathy [2, 5] | primary dose reduction of the drug because of rash [2, 5] | temporary interruption of the drug because of arthralgia [2, 5] | temporary interruption of the drug because of liver function test (LFT) abnormalities [2, 5] | temporary interruption of the drug because of rash [2, 5] | dissolution rate of the amorphous form as compared to the crystalline form [3] | solubility in water of the amorphous form as compared with the crystalline form [3] | response rates ([4]; Flaherty 2010, Chapman 2011, Sosman 2012) | decrease in the risk of disease progression or death [4, 6] | reduction in the risk of death [4, 6] | single-agent MTD ([1]; in vivo)
O=C(c1ccc(F)c(F)c1Nc1ccc(I)cc1F)N1CC(O)([C@@H]2CCCCN2)C1 [GDC-0973, [3,4-difluoro-2-[(2-fluoro-4-iodophenyl)amino]phenyl][3-hydroxy-3-[(2S)-2-piperidinyl]-1-azetidinyl]methanone] | 60 mg |  |  |  |  |  |  |  |  |  |  |  |  |  |  | 
CCCS(=O)(=O)Nc1ccc(F)c(C(=O)c2c[nH]c3ncc(-c4ccc(Cl)cc4)cc23)c1F [vemurafenib, propane-1-sulfonic acid {3-[5-(4-chlorophenyl)-1H-pyrrolo[2,3-b]pyridine-3-carbonyl]-2,4-difluoro-phenyl}-amide] |  | Grade 3 QT prolongation | Grade 3 arthralgia | 1 patient | 1 patient | 1 patient | 1 patient | 3 patients | 3 patients | 8 patients | improved dissolution rate | greater solubility in water | greater than 50% | 74% | 63% | 960 mg BID
